The values that follow come from ChEMBL document CHEMBL1139449, “Synthesis and inhibitory activity against COX-2 catalyzed prostaglandin production of chrysin derivatives” (Bioorg Med Chem Lett, 2004).

Broadly, the IC50 is the point on the concentration scale where inhibition reaches its midpoint. Read a low IC50 as greater potency.

The test system of assay [1] is RAW264.7. In words: Evaluated for inhibition of COX-2 catalyzed PGE-2 production from LPS induced RAW 264.7 cells; Range: 0.1-0.5 uM. In kind it is functional, cell-based. Conditions: Mus musculus.
In assay [2] the test system is RAW264.7. The assay can be described thus: Evaluated for inhibition of COX-2 catalyzed PGE-2 production from LPS induced RAW 264.7 cells. In kind it is functional, cell-based. The conditions noted are these: Mus musculus.

SMILES strings stand for the structures. Where only a bound is given, the exact number is not on record here.

The molecule `COc1ccc2c(=O)cc(-c3ccc(Cl)c(Cl)c3)oc2c1` had an IC50 in the assay on RAW264.7 [1] below 500 nM.
On the same count and under the same terms, then `O=c1cc(-c2ccc(Cl)c(Cl)c2)oc2cc(O)ccc12`, with below 500 nM; and `COc1cccc2oc(-c3ccc(Cl)c(Cl)c3)cc(=O)c12`, with below 500 nM.
In the assay with RAW264.7 [2], `COc1ccc2c(=O)cc(-c3ccc(Cl)cc3)oc2c1` showed a half-maximal inhibitory concentration (IC50) of 500 nM.
Turning to `O=c1cc(-c2ccccc2)oc2ccccc12` [FLAVONE], in the assay with RAW264.7 [2], the IC50 was 500 nM.
Same read-out and setting: then `CS(=O)(=O)Nc1ccc([N+](=O)[O-])cc1OC1CCCCC1` [NS-398], with 500 nM; and `COc1c(O)cc(O)c2c(=O)cc(-c3ccccc3)oc12` [WOGONIN], with 1080 nM.
